Measurements as given in patent US9394289B2, “Inhibitors of c-fms kinase” (Janssen Pharmaceutica NV, priority 2006, dated 2016).
Counter-ions that a name gives are not always drawn.

Assays:
[1] = system: mouse bone-marrow derived macrophages (BMDM); assay: CSF-1-driven mouse bone-marrow derived macrophages proliferation assay (BrDU incorporation); type: cell-based; details: Mus musculus, BMDM, 30 hrs culture, read-out: mCSF driven proliferation BMDM (Mouse) IC-50
Description: CSF-1-Driven Mouse Bone-Marrow Derived Macrophages Assay
Macrophages are derived by culturing mouse bone marrow in alpha-MEM supplemented with 10% FCS and 50 ng/ml recombinant mouse CSF-1 in bacteriologic dishes. On the sixth day, macrophages are detached from dishes, washed, and resuspended to 0.05 million cells/ml in alpha-MEM containing 10% FCS. One hundred ul of cell suspension are distributed per well into 96 well culture plates. Wells are further supplemented with the addition of 50 ul media containing 15 ng/ml CSF-1, 3 uM Indomethacin, and 3× of a dilution series of test compounds. The cells are cultured for 30 hrs at 37 degrees and 5% CO2. During the final six hours, cultures are supplemented with an additional 30 ul of media containing a 1:500 dilution of bromodeoxyuridine (BrDU). At the end of the culture period, the plates are spun at 1000 RPM for 1 minute and 130 ul of media is removed with a pipet and replaced with 150 ul of fixative solution for 1 hour @ room temperature. The fixative is then dispelled from the plates and the plates allowed to air dry. Incorporation of BrDU into the fixed, dried cells is quantified using a specific ELISA.

[2] = biological target: c-fms (Homo sapiens (Human), UniProt P07333); assay: Autophosphorylation fluorescence polarization competition immunoassay for c-fms inhibition; type: biochemical; details: averages of three independent measurements; table head says 1 nM c-fms, method says 10 nM c-fms, 1 mM ATP; read-out: 1 nM c-fms; peptide Pi assay IC-50
Sequence of c-fms (P07333 20-972): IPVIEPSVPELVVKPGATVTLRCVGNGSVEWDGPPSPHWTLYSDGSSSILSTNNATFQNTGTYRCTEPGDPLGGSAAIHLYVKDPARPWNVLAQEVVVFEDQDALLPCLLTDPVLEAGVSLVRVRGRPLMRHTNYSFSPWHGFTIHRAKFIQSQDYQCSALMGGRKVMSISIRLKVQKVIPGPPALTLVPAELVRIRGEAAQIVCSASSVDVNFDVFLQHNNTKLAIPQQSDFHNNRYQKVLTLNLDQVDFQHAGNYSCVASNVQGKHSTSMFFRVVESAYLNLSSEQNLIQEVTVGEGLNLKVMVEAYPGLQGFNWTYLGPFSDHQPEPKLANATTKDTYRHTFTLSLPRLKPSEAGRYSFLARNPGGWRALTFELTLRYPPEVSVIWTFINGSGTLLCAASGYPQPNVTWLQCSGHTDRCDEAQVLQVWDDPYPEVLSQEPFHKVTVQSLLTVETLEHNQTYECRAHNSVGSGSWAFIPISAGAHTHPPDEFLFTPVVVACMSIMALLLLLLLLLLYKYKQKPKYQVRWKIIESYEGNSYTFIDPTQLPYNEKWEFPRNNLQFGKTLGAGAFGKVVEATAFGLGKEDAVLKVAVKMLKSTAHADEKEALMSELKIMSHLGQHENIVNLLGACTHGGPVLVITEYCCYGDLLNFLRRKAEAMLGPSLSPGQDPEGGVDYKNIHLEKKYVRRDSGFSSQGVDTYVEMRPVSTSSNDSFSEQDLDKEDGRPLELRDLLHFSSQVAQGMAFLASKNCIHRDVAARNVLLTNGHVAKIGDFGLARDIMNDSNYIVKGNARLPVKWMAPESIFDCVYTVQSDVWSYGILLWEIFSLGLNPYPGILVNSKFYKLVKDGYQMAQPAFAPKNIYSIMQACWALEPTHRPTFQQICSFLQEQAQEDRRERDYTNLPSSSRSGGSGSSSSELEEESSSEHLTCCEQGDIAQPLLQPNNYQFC
Description: Fluorescence Polarization Competition Immunoassay
The assay buffer used was 100 mM 4-(2-hydroxyethyl)piperazine 1-ethanesulfonic acid (HEPES), pH 7.5, 1 mM 1,4-dithio-DL-threitol (DTT), 0.01% (v/v) Tween-20. Compounds were diluted in assay buffer containing 4% dimethylsulfoxide (DMSO) just prior to the assay. To each well, 5 μL of compound were added followed by the addition of 3 μL of a mix containing 33 nM c-fms (Johnson & Johnson PRD) and 16.7 mM MgCl2 (Sigma) in assay buffer. The kinase reaction was initiated by adding 2 μL of 5 mM ATP (Sigma) in assay buffer. […] Control reactions were ran in each plate: in positive and negative control wells, assay buffer (made 4% in DMSO) was substituted for the compound; in addition, positive control wells received 1.2 μL of 50 mM ethylenediaminetetraaceticacid (EDTA).
The plates were incubated at room temperature for 45 min. At the end of the incubation, the reaction was quenched with 1.2 μL of 50 mM EDTA (EDTA was not added to the positive control wells at this point; see above). Following a 5-min incubation, each well received 10 μL of a 1:1:3 mixture of anti-phosphotyrosine antibody, 10×, PTK green tracer, 10× (vortexed), FP dilution buffer, respectively (all from PanVera, cat. #P2837). The plate was covered, incubated for 30 min at room temperature and the fluorescence polarization was read on the Analyst. The instrument settings were: 485 nm excitation filter; 530 nm emission filter; Z height: middle of well; G factor: 0.93. […] The reported IC50 values are averages of three independent measurements.

| Compound | IC50 [2] [nM] | IC50 [1] [nM] |
| --- | --- | --- |
| CN(C)CCOC1(c2ccc(NC(=O)c3ncc(C#N)[nH]3)c(C3=CCC(C)(C)CC3)c2)CCOCC1 [Example 2, 5-Cyano-1H-imidazole-2-carboxylic acid [4-[4-(2-dimethylamino-ethoxy)-tetrahydro-pyran-4-yl]-2-(4,4-dimethyl-cyclohex-1-enyl)-phenyl]-amide trifluoroacetic acid salt] | 0.42 | 2.2 |
| COCCNC1(c2ccc(NC(=O)c3nc(C#N)c[nH]3)c(C3=CCC(C)(C)CC3)c2)CCOCC1 [Example 4, 4-Cyano-1H-imidazole-2-carboxylic acid {2-(4,4-dimethyl-cyclohex-1-enyl)-4-[4-(2-methoxy-ethylamino)-tetrahydro-pyran-4-yl]-phenyl}-amide] | 1.8 | 14 |
| CC1(C)CC=C(c2cc(C3(N)CCOCC3)ccc2NC(=O)c2ncc(C#N)[nH]2)CC1 [Example 5, 5-Cyano-1H-imidazole-2-carboxylic acid [4-(4-amino-tetrahydro-pyran-4-yl)-2-(4,4-dimethyl-cyclohex-1-enyl)-phenyl]-amide] | 0.5 | 2.4 |
| CC1(C)CC=C(c2cc(C3(N4CCOCC4)CCOCC3)ccc2NC(=O)c2ncc(C#N)[nH]2)CC1 [Example 6, 5-Cyano-1H-imidazole-2-carboxylic acid [2-(4,4-dimethyl-cyclohex-1-enyl)-4-(4-morpholin-4-yl-tetrahydro-pyran-4-yl)-phenyl]-amide] | 1.6 | 15 |
| CC1(C)CC=C(c2cc(C3(N4CCNCC4)CCOCC3)ccc2NC(=O)c2ncc(C#N)[nH]2)CC1 [Example 9, 5-Cyano-1H-imidazole-2-carboxylic acid [2-(4,4-dimethyl-cyclohex-1-enyl)-4-(4-piperazin-1-yl-tetrahydro-pyran-4-yl)-phenyl]-amide] | 1.9 | 100 |
| CC1(C)CC=C(c2cc(C3(N4CCN(CC(=O)O)CC4)CCOCC3)ccc2NC(=O)c2ncc(C#N)[nH]2)CC1 [Example 10, (4-{4-[4-[(5-Cyano-1H-imidazole-2-carbonyl)-amino]-3-(4,4-dimethyl-cyclohex-1-enyl)-phenyl]-tetrahydro-pyran-4-yl}-piperazin-1-yl)-acetic acid trifluoroacetic acid salt] | 7.9 | > 300 |
| CC1(C)CC=C(c2cc(C3(O)CCSCC3)ccc2NC(=O)c2nc(C#N)c[nH]2)CC1 [Example 11, 4-Cyano-1H-imidazole-2-carboxylic acid [2-(4,4-dimethyl-cyclohex-1-enyl)-4-(4-hydroxy-tetrahydro-thiopyran-4-yl)-phenyl]-amide] | 2.9 | 35 |
| CC1(C)CC=C(c2cc(C3(O)CCS(=O)(=O)CC3)ccc2NC(=O)c2nc(C#N)c[nH]2)CC1 [Example 12, 4-Cyano-1H-imidazole-2-carboxylic acid [2-(4,4-dimethyl-cyclohex-1-enyl)-4-(4-hydroxy-1,1-dioxo-hexahydro-1λ^6-thiopyran-4-yl)-phenyl]-amide] | 1.1 | 31 |
| N#Cc1c[nH]c(C(=O)Nc2ccc(C3(O)CCS(=O)(=O)CC3)cc2C2=CCCCC2)n1 [Example 15, 4-Cyano-1H-imidazole-2-carboxylic acid [2-cyclohex-1-enyl-4-(4-hydroxy-1,1-dioxo-hexahydro-1λ^6-thiopyran-4-yl)-phenyl]-amide] |  | 14 |
| N#Cc1c[nH]c(C(=O)Nc2ccc(C3(C(=O)O)CCOCC3)cc2C2=CCCCC2)n1 [Example 18, 4-{4-[(4-Cyano-1H-imidazole-2-carbonyl)-amino]-3-cyclohex-1-enyl-phenyl}-tetrahydro-pyran-4-carboxylic acid] | 3.6 | 300 |
| N#Cc1c[nH]c(C(=O)Nc2ccc(C3(C(N)=O)CCOCC3)cc2C2=CCCCC2)n1 [Example 19, 4-Cyano-1H-imidazole-2-carboxylic acid [4-(4-carbamoyl-tetrahydro-pyran-4-yl)-2-cyclohex-1-enyl-phenyl]-amide] | 1.8 | 19 |

Further lines, with some results ahead:

| IC50 [2] [nM] | Compound | IC50 [1] [nM] |
| --- | --- | --- |
| 0.7 | CC1(C)CC=C(c2cc(C3(O)CCOCC3)ccc2NC(=O)c2ncc(C#N)[nH]2)CC1 [Example 1, 5-Cyano-1H-imidazole-2-carboxylic acid [2-(4,4-dimethyl-cyclohex-1-enyl)-4-(4-hydroxy-tetrahydro-pyran-4-yl)-phenyl]-amide] | 4 |
| 1.7 | CC1(C)CC=C(c2cc(C3(OCC(=O)O)CCOCC3)ccc2NC(=O)c2ncc(C#N)[nH]2)CC1 [Example 3, {4-[4-[(5-Cyano-1H-imidazole-2-carbonyl)-amino]-3-(4,4-dimethyl-cyclohex-1-enyl)-phenyl]-tetrahydro-pyran-4-yloxy}-acetic acid] |  |
| 0.67 | CN(C)C1(c2ccc(NC(=O)c3ncc(C#N)[nH]3)c(C3=CCC(C)(C)CC3)c2)CCOCC1 [Example 7, 5-Cyano-1H-imidazole-2-carboxylic acid [4-(4-dimethylamino-tetrahydro-pyran-4-yl)-2-(4,4-dimethyl-cyclohex-1-enyl)-phenyl]-amide] | 11 |
| 4 | CN1CCN(C2(c3ccc(NC(=O)c4ncc(C#N)[nH]4)c(C4=CCC(C)(C)CC4)c3)CCOCC2)CC1 [Example 8, 5-Cyano-1H-imidazole-2-carboxylic acid {2-(4,4-dimethyl-cyclohex-1-enyl)-4-[4-(4-methyl-piperazin-1-yl)-tetrahydro-pyran-4-yl]-phenyl}-amide] | 15 |
| 0.8 | CC(=O)N1CCC(N)(c2ccc(NC(=O)c3nc(C#N)c[nH]3)c(C3=CCC(C)(C)CC3)c2)CC1 [Example 13, 4-Cyano-1H-imidazole-2-carboxylic acid [4-(1-acetyl-4-amino-piperidin-4-yl)-2-(4,4-dimethyl-cyclohex-1-enyl)-phenyl]-amide acetic acid salt] | 8.1 |
| 3.9 | N#Cc1c[nH]c(C(=O)Nc2ccc(C3(O)CCSCC3)cc2C2=CCCCC2)n1 [Example 14, 4-Cyano-1H-imidazole-2-carboxylic acid [2-cyclohex-1-enyl-4-(4-hydroxy-tetrahydro-thiopyran-4-yl)-phenyl]-amide] | 9.5 |
| 0.67 | COC(=O)C1(c2ccc(NC(=O)c3nc(C#N)c[nH]3)c(C3=CCC(C)(C)CC3)c2)CCOCC1 [Example 16, 4-[4-[(4-Cyano-1H-imidazole-2-carbonyl)-amino]-3-(4,4-dimethyl-cyclohex-1-enyl)-phenyl]-tetrahydro-pyran-4-carboxylic acid methyl ester] | 46 |
| 0.56 | CC1(C)CC=C(c2cc(C3(C(=O)O)CCOCC3)ccc2NC(=O)c2nc(C#N)c[nH]2)CC1 [Example 17, 4-[4-[(4-Cyano-1H-imidazole-2-carbonyl)-amino]-3-(4,4-dimethyl-cyclohex-1-enyl)-phenyl]-tetrahydro-pyran-4-carboxylic acid] | > 300 |
| 1.8 | N#Cc1c[nH]c(C(=O)Nc2ccc(C3(CO)CCOCC3)cc2C2=CCCCC2)n1 [Example 20, 4-Cyano-1H-imidazole-2-carboxylic acid [2-cyclohex-1-enyl-4-(4-hydroxymethyl-tetrahydro-pyran-4-yl)-phenyl]-amide] | 20 |
| 1.6 | N#Cc1c[nH]c(C(=O)Nc2ccc(C3(CN4CCOCC4)CCOCC3)cc2C2=CCCCC2)n1 [Example 21, 4-Cyano-1H-imidazole-2-carboxylic acid [2-cyclohex-1-enyl-4-(4-morpholin-4-ylmethyl-tetrahydro-pyran-4-yl)-phenyl]-amide] | 7.9 |
| 0.8 | CC1(C)CC=C(c2cc(C3(c4nn[nH]n4)CCOCC3)ccc2NC(=O)c2nc(C#N)c[nH]2)CC1 [Example 22, 4-Cyano-1H-imidazole-2-carboxylic acid {2-(4,4-dimethyl-cyclohex-1-enyl)-4-[4-(2H-tetrazol-5-yl)-tetrahydro-pyran-4-yl]-phenyl}-amide] | > 300 |
| 6.4 | CC1(C)CC=C(c2cc(C3(C(=O)O)CCOCC3)ccc2NC(=O)c2cc(C#N)c[nH]2)CC1 [Example 23, 4-[4-[(4-Cyano-1H-pyrrole-2-carbonyl)-amino]-3-(4,4-dimethyl-cyclohex-1-enyl)-phenyl]-tetrahydro-pyran-4-carboxylic acid] | > 300 |
